Measured values taken from ChEMBL document CHEMBL1151505, “Imino 1,2,3,4-tetrahydrocyclopent[b]indole carbamates as dual inhibitors of acetylcholinesterase and monoamine oxidase” (Bioorg Med Chem Lett, 1996).
Several values for one entry are separate records, joined by “and”; a condition that tells them apart may be missing. Equal values may be shown once. Activity calls are given as the source filed them. The rule behind the calls is not given here.

What was measured:
[1] = target: T1, Acetylcholinesterase (Homo sapiens, UniProt P22303); test: Inhibition of acetylcholinesterase.
[2] = target: T2, Amine oxidase [flavin-containing] B (Homo sapiens, UniProt P27338); test: Compound was tested for inhibition of monoamine oxidase-B (MAO-B).
T2 sequence (P27338 whole entry): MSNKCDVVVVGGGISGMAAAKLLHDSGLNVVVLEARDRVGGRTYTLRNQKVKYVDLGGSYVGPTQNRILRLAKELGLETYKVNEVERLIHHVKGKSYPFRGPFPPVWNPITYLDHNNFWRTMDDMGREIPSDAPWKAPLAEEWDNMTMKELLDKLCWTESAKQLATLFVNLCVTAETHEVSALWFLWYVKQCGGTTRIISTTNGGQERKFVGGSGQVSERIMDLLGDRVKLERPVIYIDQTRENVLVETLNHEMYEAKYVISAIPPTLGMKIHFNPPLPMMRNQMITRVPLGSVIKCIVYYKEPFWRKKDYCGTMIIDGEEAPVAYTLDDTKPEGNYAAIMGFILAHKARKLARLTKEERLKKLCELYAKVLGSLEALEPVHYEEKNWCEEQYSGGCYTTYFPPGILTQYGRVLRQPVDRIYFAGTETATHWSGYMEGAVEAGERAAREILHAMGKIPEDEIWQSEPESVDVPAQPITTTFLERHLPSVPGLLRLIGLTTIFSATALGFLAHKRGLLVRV

[3] = target: T3, Amine oxidase [flavin-containing] A (Homo sapiens, UniProt P21397); test: Compound was tested for inhibition of monoamine oxidase-A (MAO-A).
T3 sequence (P21397 whole entry): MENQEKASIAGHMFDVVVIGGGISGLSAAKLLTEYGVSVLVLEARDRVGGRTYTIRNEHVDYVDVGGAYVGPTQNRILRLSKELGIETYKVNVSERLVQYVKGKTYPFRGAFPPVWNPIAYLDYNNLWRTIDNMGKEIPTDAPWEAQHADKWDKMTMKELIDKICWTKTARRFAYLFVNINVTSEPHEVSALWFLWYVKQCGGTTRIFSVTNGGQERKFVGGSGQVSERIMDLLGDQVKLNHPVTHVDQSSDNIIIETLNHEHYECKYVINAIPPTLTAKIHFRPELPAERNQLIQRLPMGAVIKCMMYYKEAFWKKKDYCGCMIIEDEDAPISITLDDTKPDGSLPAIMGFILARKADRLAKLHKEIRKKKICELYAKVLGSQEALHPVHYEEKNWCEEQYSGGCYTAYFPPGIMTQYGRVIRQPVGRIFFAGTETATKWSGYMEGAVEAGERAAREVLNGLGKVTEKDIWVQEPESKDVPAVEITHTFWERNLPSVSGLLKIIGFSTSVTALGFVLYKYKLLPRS

[4] = target: T2, Amine oxidase [flavin-containing] B; test: Compound was tested for inhibition of monoamine oxidase-B (MAO-B) at 50 mg/kg dose upon peroral administration in 24 hr time interval; assay type: organism-based; parameters: dose 50 mg/kg, route oral; details: po
[5] = target: T2, Amine oxidase [flavin-containing] B; test: Compound was tested for inhibition of monoamine oxidase-B (MAO-B) at 50 mg/kg dose upon peroral administration in 48 hr time interval; assay type: organism-based; parameters: dose 50 mg/kg, route oral; details: in vivo, po
[6] = target: T2, Amine oxidase [flavin-containing] B; test: Compound was tested for inhibition of monoamine oxidase-B (MAO-B) at 50 mg/kg dose upon peroral administration in 4 hr time interval; assay type: organism-based; parameters: dose 50 mg/kg, route oral; details: po
[7] = target: T3, Amine oxidase [flavin-containing] A; test: Compound was tested for inhibition of monoamine oxidase-A (MAO-A) at 50 mg/kg dose upon peroral administration in 1 hr time interval; assay type: organism-based; parameters: dose 50 mg/kg, route oral; details: po
[8] = target: T3, Amine oxidase [flavin-containing] A; test: Compound was tested for inhibition of monoamine oxidase-A (MAO-A) at 50 mg/kg dose upon peroral administration in 24 hr time interval; assay type: organism-based; parameters: dose 50 mg/kg, route oral; details: po
[9] = target: T3, Amine oxidase [flavin-containing] A; test: Compound was tested for inhibition of monoamine oxidase-A (MAO-A) at 50 mg/kg dose upon peroral administration in 48 hr time interval; assay type: organism-based; parameters: dose 50 mg/kg, route oral; details: po
[10] = target: T3, Amine oxidase [flavin-containing] A; test: Compound was tested for inhibition of monoamine oxidase-A (MAO-A) at 50 mg/kg dose upon peroral administration in 4 hr time interval; assay type: organism-based; parameters: dose 50 mg/kg, route oral; details: po
[11] = target: T1, Acetylcholinesterase; details: 50 mg/kg
[12] = target: T1, Acetylcholinesterase; details: 50 mg/kg; remark: listed apart in the source
[13] = target: T1, Acetylcholinesterase; details: 50 mg/kg; remark: listed apart in the source
[14] = target: T1, Acetylcholinesterase; details: 10 mg/kg
Description: Compound was tested for inhibition of acetylcholinesterase at 10 mg/kg dose upon peroral administration in 0.5 hr time interval

[15] = target: T1, Acetylcholinesterase; details: 10 mg/kg; remark: listed apart in the source
Description: Compound was tested for inhibition of acetylcholinesterase at 10 mg/kg dose upon peroral administration in 1 hr time interval

[16] = target: T1, Acetylcholinesterase; details: 10 mg/kg; remark: listed apart in the source
Description: Compound was tested for inhibition of acetylcholinesterase at 10 mg/kg dose upon peroral administration in 4 hr time interval

[17] = target: T1, Acetylcholinesterase; details: 10 mg/kg; remark: listed apart in the source
Description: Compound was tested for inhibition of acetylcholinesterase at 10 mg/kg dose upon peroral administration in 24 hr time interval

[18] = target: T2, Amine oxidase [flavin-containing] B; test: Compound was tested for inhibition of monoamine oxidase-B (MAO-B) at 10 mg/kg dose upon peroral administration in 48 hr time interval; assay type: organism-based; parameters: dose 10 mg/kg, route oral; details: po
[19] = target: T2, Amine oxidase [flavin-containing] B; test: Compound was tested for inhibition of monoamine oxidase-B (MAO-B) at 10 mg/kg dose upon peroral administration in 4 hr time interval; assay type: organism-based; parameters: dose 10 mg/kg, route oral; details: po
[20] = target: T2, Amine oxidase [flavin-containing] B; test: Compound was tested for inhibition of monoamine oxidase-B (MAO-B) at 10 mg/kg dose upon peroral administration in 1 hr time interval; assay type: organism-based; parameters: dose 10 mg/kg, route oral; details: po
[21] = target: T2, Amine oxidase [flavin-containing] B; test: Compound was tested for inhibition of monoamine oxidase-B (MAO-B) at 10 mg/kg dose upon peroral administration in 24 hr time interval; assay type: organism-based; parameters: dose 10 mg/kg, route oral; details: po
[22] = target: T3, Amine oxidase [flavin-containing] A; test: Compound was tested for inhibition of monoamine oxidase-A (MAO-A) at 10 mg/kg dose upon peroral administration in 1 hr time interval; assay type: organism-based; parameters: dose 10 mg/kg, route oral; details: po
[23] = target: T3, Amine oxidase [flavin-containing] A; test: Compound was tested for inhibition of monoamine oxidase-A (MAO-A) at 10 mg/kg dose upon peroral administration in 24 hr time interval; assay type: organism-based; parameters: dose 10 mg/kg, route oral; details: po
[24] = target: T3, Amine oxidase [flavin-containing] A; test: Compound was tested for inhibition of monoamine oxidase-A (MAO-A) at 10 mg/kg dose upon peroral administration in 48 hr time interval; assay type: organism-based; parameters: dose 10 mg/kg, route oral; details: po
[25] = target: T3, Amine oxidase [flavin-containing] A; test: Compound was tested for inhibition of monoamine oxidase-A (MAO-A) at 10 mg/kg dose upon peroral administration in 4 hr time interval; assay type: organism-based; parameters: dose 10 mg/kg, route oral; details: po
[26] = target: T1, Acetylcholinesterase; test: Compound was tested for inhibition of acetylcholinesterase at […] dose upon peroral administration in 0.5 hr time interval
[27] = target: T1, Acetylcholinesterase; test: Compound was tested for inhibition of acetylcholinesterase at 50 mg/kg dose upon peroral administration in 24 hr time interval; assay type: organism-based; parameters: dose 50 mg/kg
[28] = target: T1, Acetylcholinesterase; test: Compound was tested for inhibition of acetylcholinesterase at 50 mg/kg dose upon peroral administration in 1 hr time interval; assay type: organism-based; parameters: dose 50 mg/kg
[29] = target: T1, Acetylcholinesterase; test: Compound was tested for inhibition of acetylcholinesterase at 50 mg/kg dose upon peroral administration in 4 hr time interval; assay type: organism-based; parameters: dose 50 mg/kg
[30] = target: T2, Amine oxidase [flavin-containing] B; test: Compound was tested for inhibition of monoamine oxidase-B (MAO-B) at 50 mg/kg dose upon peroral administration in 0.5 hr time interval; assay type: organism-based; parameters: dose 50 mg/kg, route oral; details: po
[31] = target: T2, Amine oxidase [flavin-containing] B; test: Compound was tested for inhibition of monoamine oxidase-B (MAO-B) at 50 mg/kg dose upon peroral administration in 1 hr time interval; assay type: organism-based; parameters: dose 50 mg/kg, route oral; details: po
[32] = target: T2, Amine oxidase [flavin-containing] B; test: Compound was tested for inhibition of monoamine oxidase-B (MAO-B) at 50 mg/kg dose upon peroral administration in 48 time interval; assay type: organism-based; parameters: dose 50 mg/kg, route oral; details: po
[33] = target: T3, Amine oxidase [flavin-containing] A; test: Compound was tested for inhibition of monoamine oxidase-A (MAO-A) at 50 mg/kg dose upon peroral administration in 0.5 hr time interval; assay type: organism-based; parameters: dose 50 mg/kg, route oral; details: po
[34] = target: T3, Amine oxidase [flavin-containing] A; test: Compound was tested for inhibition of monoamine oxidase-A (MAO-A) at 50 mg/kg dose upon peroral administration in 48 time interval; assay type: organism-based; parameters: dose 50 mg/kg, route oral; details: po

T1 sequence (P22303 whole entry): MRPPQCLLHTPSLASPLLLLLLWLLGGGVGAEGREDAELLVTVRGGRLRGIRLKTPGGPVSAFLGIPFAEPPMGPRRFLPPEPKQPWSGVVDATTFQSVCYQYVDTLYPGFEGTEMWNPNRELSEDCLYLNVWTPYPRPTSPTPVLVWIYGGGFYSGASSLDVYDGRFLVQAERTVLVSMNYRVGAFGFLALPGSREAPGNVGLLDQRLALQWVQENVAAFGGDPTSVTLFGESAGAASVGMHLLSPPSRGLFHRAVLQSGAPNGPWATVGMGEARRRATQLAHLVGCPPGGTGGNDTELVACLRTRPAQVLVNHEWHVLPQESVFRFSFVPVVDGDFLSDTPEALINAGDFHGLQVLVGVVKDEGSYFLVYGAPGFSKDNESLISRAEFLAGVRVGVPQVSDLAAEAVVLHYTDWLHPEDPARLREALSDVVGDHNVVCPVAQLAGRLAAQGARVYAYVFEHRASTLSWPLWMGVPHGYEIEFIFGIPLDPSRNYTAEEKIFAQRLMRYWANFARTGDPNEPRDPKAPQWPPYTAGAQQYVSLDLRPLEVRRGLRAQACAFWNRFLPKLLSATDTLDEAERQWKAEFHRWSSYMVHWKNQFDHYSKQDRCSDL

| Compound | IC50 [1] | IC50 [2] | IC50 [3] | other results |
| --- | --- | --- | --- | --- |
| C/N=C1/CCc2c1n(C)c1cc(Cl)c(OC(=O)NC)cc21 | 0.67 µM | 395 µM | 22.5 µM | – |
| CC/N=C1/CCc2c1n(C)c1ccc(OC(=O)NC)c(Cl)c21 | 0.16 µM | > 1000 µM | 0.1 µM | – |
| CCC/N=C1/CCc2c1n(C)c1ccccc21 | – | > 1000 µM | 1.61 µM | – |
| C/N=C1/CCc2c1n(C)c1ccc(OC(=O)NC)c(Cl)c21 | 0.23 µM | > 1000 µM | 1.36 µM | – |
| C/N=C1/CCc2c1n(C)c1ccc(OC(=O)NC)c(Br)c21 | 0.18 µM | > 1000 µM | 0.65 µM | – |
| C/N=C1/CCc2c1n(C)c1ccc(OC(=O)N(C)C)c(Br)c21 | 0.06 µM | 51 µM | 0.54 µM | inhibition at 50 mg/kg [4]: 6.6%; Inhibition [5]: 10.1% and 20.4%; inhibition at 50 mg/kg [6]: 25.9%; inhibition at 50 mg/kg [7]: 44%; inhibition at 50 mg/kg [8]: 23.2%; inhibition at 50 mg/kg [9]: 22.3%; inhibition at 50 mg/kg [10]: 58.8%; inhibition [11]: inactive; inhibition [12]: inactive; inhibition [13]: inactive |
| CCCCNC(=O)Oc1ccc2c(c1Br)c1c(n2C)/C(=N\C)CC1 | 3.17 µM | 175 µM | 0.75 µM | – |
| CC(C)/N=C1/CCc2c1n(C)c1ccccc21 | – | > 1000 µM | 30.8 µM | – |
| CC/N=C1/CCc2c1n(C)c1ccccc21 | – | 77.6 µM | 2.12 µM | – |
| C/N=C1/CCc2c1n(C)c1ccc(OC(=O)NCc3ccccc3)c(Br)c21 | 4.19 µM | > 1000 µM | 5.47 µM | – |
| CCCn1c2c(c3c(Br)c(OC(=O)NC)ccc31)CC/C2=N/CC | 0.23 µM | > 1000 µM | > 1000 µM | – |
| CCCCCCCNC(=O)Oc1ccc2c(c1)[C@]1(C)CCN(C)[C@@H]1N2C [EPTASTIGMINE] | 0.009 µM | – | – | inhibition [14]: 33.2%; inhibition [15]: 52.3%; inhibition [16]: 72.9%; inhibition [17]: 20.8% |
| CC/N=C1/CCc2c1n(C)c1ccc(OC(=O)NC)cc21 | 5.68 µM | > 1000 µM | 3.74 µM | – |
| Cn1c2c(c3ccccc31)CC/C2=N/Cc1ccncc1 | – | > 1000 µM | 113 µM | – |
| COc1cc(Br)c2oc(C3CCNCC3)cc2c1 [BROFAROMINE] | – | 23.4 µM | 0.18 µM | inhibition at 10 mg/kg [18]: 18.3%; inhibition at 10 mg/kg [19]: 42.6%; inhibition at 10 mg/kg [20]: 29.6%; inhibition at 10 mg/kg [21]: 22.2%; inhibition at 10 mg/kg [22]: 52.1%; inhibition at 10 mg/kg [23]: 28.7%; inhibition at 10 mg/kg [24]: 13.2%; inhibition at 10 mg/kg [25]: 64.2% |
| C/N=C1/CCc2c1n(C)c1ccccc21 | – | 317 µM | 0.92 µM | – |
| CNC(=O)Oc1ccc2c(c1)c1c(n2C)/C(=N\CCc2ccccc2)CC1 | 0.16 µM | > 1000 µM | > 1000 µM | – |
| CC/N=C1/CCc2c1n(C)c1ccc(OC(=O)NC)c(Br)c21 | 0.14 µM | > 1000 µM | 0.21 µM | inhibition [26]: 15.1%; inhibition [27]: 0.2%; inhibition [28]: 19.4%; inhibition [29]: 30.9%; inhibition at 50 mg/kg [30]: 21.5%; inhibition at 50 mg/kg [31]: 17.2%; inhibition at 50 mg/kg [4]: 17.8%; inhibition at 50 mg/kg [32]: 9.3%; inhibition at 50 mg/kg [6]: 25.9%; inhibition at 50 mg/kg [33]: 28.2%; inhibition at 50 mg/kg [7]: 33.3%; inhibition at 50 mg/kg [8]: 13.1%; inhibition at 50 mg/kg [34]: 11.7%; inhibition at 50 mg/kg [10]: 48.9% |
| CCC/N=C1/CCc2c1n(C)c1ccc(OC(=O)NC)cc21 | 3.84 µM | > 1000 µM | 25.4 µM | – |
| C/N=C1/CCc2c1n(C)c1ccc(OC(=O)NC)cc21 | 3.36 µM | > 1000 µM | 13.6 µM | – |
